For data set [1], the system named is COX-2. The experiment in a line: COX-2 mRNA in distal colonic tissues by qRT-PCR. Type of data set: in vivo, mice. As to conditions: for tissue COX-2 expression: compared to control mice. As to the method:
Total RNA in distal colonic tissues was extracted using TRIzol reagent (Thermo Fisher Scientific). The quality and quantity of RNA were determined by NanoDrop2000 spectrophotometer. Complementary DNA (cDNA) was synthesized from 1000 ng of the extracted RNA by reverse transcription (PrimeScript RT Reagent Kit with gDNA Eraser) (Takara, Japan) and analyzed by qPCR with normalization by GAPDH. The primers used were: […]

The subject of data set [2] is colorectal tumorigenesis. Nature of the data set: AOM/DSS-treated germ-free and conventionalized germ-free Kunming mice. In kind it is in vivo. As to the method:
Germ-free wild-type Kunming mice (10 weeks old) in male gender were treated with AOM and DSS to induce intestinal neoplasia. The treatment regimens of AOM, DSS and aspirin were the same as described for conventional mice. In a separate experiment, to determine the direct effects of microbiota on chemoprevention, germ-free mice were conventionalized after their cages were placed out of germ-free environment at 10 weeks old prior to treatment. The remaining procedures performed were the same as described for conventional mice. Germ-free mice were bred at the Department of Laboratory Animal Science, The Third Military Medical University, Chongqing, China. The germ-free animal experiments were approved by the Animal Experimentation Ethics Committee of The Third Military Medical University.

Data set [3] concerns fecal bacteria. In kind it is in vitro ADME, mice. The protocol:
The levels of aspirin from plasma, gut luminal contents and culture medium was determined by ultra-high-performance liquid chromatography-quadrupole time-of-flight mass spectrometry (UHPLC-Q-TOF/MS). The detection sample was mixed in 5 μL 4-[…] (0.39 mg/mL, internal standard). Aspirin and salicylic acid were extracted twice by 400 μL cold methanol. Supernatants were dried under nitrogen stream and detected by UHPLC (1290 Infinity LC, Agilent, Santa Clara, Calif.) and MS (6550 Q-TOF/MS, Agilent, CA). The primary metabolite of aspirin, salicylic acid, in culture medium was examined by Trinder's method^26. Equal number of fecal bacteria (estimated by optical density (OD) 600) from APC^min/+ mice with and without antibiotic treatment were inoculated into the brain heart infusion (BHI) medium (Thermo Fisher Scientific) containing aspirin (10 mM). After 2-hour co-incubation at 37° C., the level of salicylic acid in medium was measured by Trinder's method^26. Briefly, the supernatant of medium was mixed with a solution containing 40 g ferric nitrate, 40 g mercuric chloride and 120 mL 1N HCL in 1 L ddH2O at 1:5 ratio. Salicylic acid was quantified by absorbance value at 540 nm. The plasma and luminal content levels of salicylic acid were evaluated by UHPLC-Q-TOF/MS. Mouse feces were mixed with cooked meat (CM) medium (Thermo Fisher Scientific). […]

The test system of data set [4] is colorectal tumorigenesis. Nature of the data set: APCmin/+ spontaneous colorectal cancer mouse model. In kind it is in vivo. Particulars: aspirin 400 mg/L drinking water; microbiota-depleted APCmin/+ mice. As to the method: Drinking water was supplemented with antibiotics cocktail (0.2 g/L of ampicillin, neomycin and metronidazole and 0.1 g/L of vancomycin) for two weeks, every other two weeks, till the end of experiment, to deplete the gut microbiota. Aspirin (Byer, Leverkusen, Germany), freshly prepared (400 mg/L) in drinking water twice a week, was continuously given to mice through the entire experiment. […] At day 80 for AOM/DSS model and day 84 for APC^min/+ model, mice were harvested. The intestines were longitudinally opened along the mesenteric margin and flushed with ice-cold phosphate-buffered saline (PBS). Solid neoplastic lesions were carefully counted for tumor number and measured for tumor size (average diameter, (major diameter+minor diameter)/2) and tumor load (sum of average diameters of all tumors). The intestinal tissues were fixed in 10% neutral buffered formalin and embedded in paraffin. Sections (4 μm) were stained with hematoxylin and eosin for histological examination by a pathologist (A/Professor Anthony W H Chan) who was blind to the experimental design. The remaining tissues were snap-frozen in liquid nitrogen, and stored at −80° C. until use. All procedures adhered to the guidelines approved by the Animal Experimentation Ethics Committee of the Chinese University of Hong Kong.

[5] abbreviates: AOM/DSS-treated conventionalized germ-free mice.
Setting [6] is: AOM/DSS-treated germ-free mice, relative to untreated germ-free control mice.

Consider `CC(=O)Oc1ccccc1C(=O)O` [aspirin, acetylsalicylic acid], for which the “colonic COX-2 mRNA level” value in data set [1] (AOM/DSS mice with depleted microbiota) and in data set [1] (APCmin/+ mice with depleted microbiota) was “significantly decreased” in each case. Also, the COX-2 expression result in data set [1] (AOM/DSS-treated germ-free mice) is given as “reductions”. The “tissue COX-2 expression” value in data set [1] (conventional mice with intact microbiota) and in data set [1] (conventionalized germ-free mice) was “no differences” throughout. Also, the “suppressive effect on tumorigenesis (tumor load)” value in data set [2] (setting [5]) is recorded as “impaired by conventionalization”. For the same molecule, the “suppressive effect on tumorigenesis (tumor number)” value in data set [2] (setting [5]) is reported as “impaired by conventionalization”. The values for the colorectal tumor load result in data set [2] (setting [6]) and in data set [4] were “significantly reduced” and “significantly decreased”, respectively. The colorectal tumor number entry in data set [2] (setting [6]) was “significantly reduced”; in data set [4], “significantly decreased”. Besides, the “salicylic acid level in the medium (UHPLC-Q-TOF/MS)” value in data set [3] is “not significantly different”.

The values are drawn from patent publication US12275995B2, “Lysinibacillus sphaericus and aspirin chemoprevention of colorectal cancer” (priority 2019, dated 2025).
